Source: patent US20140316004A1, “TREATMENT OF POULTRY FOR REDUCING THE FEED CONVERSION RATE OR FOR REDUCING THE INCIDENCE OF ASCITES” (TAMINCO N.V., priority 2006, published 2014)

Tests used:
[1] = Broiler slaughter test: production performance (mortality, growth rate, feed conversion rate); type: in vivo, broilers; settings: 167 mg DMG per kg feed
Description: (§1) To examine all the effects associated with the supplementation of dimethylglycine in fowl feed, a test was setup with broilers as model species. In this slaughter test with 64 broiler hens, 14-day old chickens were bred for 26 days, i.e. till the age of 40 days. At the beginning of the test the broilers were ad random divided in 16 groups of 4 specimens. The birds were fed with one type of feed from the first day on till the end of the test period. The type of feed was attributed on a random basis to the different housings. The animals were setup with a colored ring around their leg for identification purposes within each housing. The control feed was based on a commercial broiler crumble enriched with 5% corn oil to increase the oxidative stress in the feed. Further 1% celite was mixed into the feed as external marker to allow the determination of the apparent nutrient digestibility. The feed had the following composition: 87.65% dry matter, 6.13% ash, 18.05% crude protein, 9.13% crude fat, 4.32% crude fibre and 50.01% other carbohydrates (including 89% starch and 2% sugar). It has a (calculated) metabolizable energy value of about 13.4 MJ/kg.
(§2) In the second type of feed 167 mg of DMG was added per kilogram to the same composition of feed as described for the control feed. Over the entire test period, the broilers consumed on average about 25 mg DMG per bird per day. The housing of the broilers consisted out of circular housings with an open roof and bottom and with a total surface of 0.72 m^2. The material of the fencing was a flexible wire netting with a height of 1 m and mazes of 2×2 cm and thickness of 2 mm. The bottom was strewed with a thick layer of turf with on top a layer of wood-shavings. Feed and water were ad libitum available at all times. The average environmental temperature was maintained at 15° C. to increase the occurrence of ascites (Shlosberg A., Zadikov I., Bendheim U., Handji V., Berman E. Avian Pathology, 21, 369-382 (1992)). A conventional light scheme of 23 hours light:1 hour dark was applied
The daily growth during the two periods (between the first and fifteenth day and between the sixteenth and twentysixth day) was calculated for each surviving animal. The feed uptake for each housing was also measured during both periods. The commercial feed conversion rate was calculated for each of the housings for both periods (FCRI and FCR II) and for the total growth period. This commercial feed conversion rate was calculated by dividing the total feed consumption by the weight gain of the birds which stayed alive during the entire experiment, including also the feed consumption of the birds that died. To determine only the non-therapeutic effect of DMG on the feed conversion rate, the actual feed conversion rate of the living birds was also calculated more particularly on the basis of weight gain and the feed consumed by these living birds (based on the weight gain of the birds that died, the amount of feed consumed by these birds was detracted from the total feed consumption).

ascites [2] = assay: Broiler slaughter test: incidence of ascites and ascites heart index at autopsy; type: in vivo, broilers
Description: as §1, §2
Finally there was also an autopsy on all chickens. First, the carcass weight was determined by dissection of the head, the paws, evisceration and the deduction of the average feather weight. Next, the weight of the breast, buttock and thigh muscle were determined. Also the heart, liver and abdominal fat were measured. Macroscopic lesions related to ascites were visually reviewed and described as indicated by Scheele et al. (2003) (Scheele, C. W., Van Der Klis, J. D., Kwakernaak, C., Buys, N., Decuypere, E., British Poultry Science, 44(3), 484-489 (2003)), these were: accumulation of liquid in the abdomen, a hydropericard and right heart dilatation. The latter was quantified by the ascites heart index (AHD being the ratio of the dry weight of the right ventricle to the dry weight of both ventricles after freeze drying.

[3] = 1000 mg pangamic acid per kg of feed; not affected, same as control group; cited from earlier work
ascites [4] = settings: coenzyme Q added to high-calorie pelletized feed, growth rate higher than 50 g/day; cited from earlier work

CN(C)CC(=O)O [DMG, N,N-dimethylglycine]
Mortality (%) ([1]; 26-day test, 15° C, feed enriched with 5% corn oil): 6.25% | Growth rate (g/d) Phase I (days 1-15) ([1]; days 1-15): 70 g/day | Commercial feed conversion FCR I (days 1-15) ([1]; days 1-15, includes feed of birds that died): 2.23 | Actual feed conversion FCR I (days 1-15) ([1]; days 1-15, living birds only): 2.07 | Growth rate (g/d) Total (days 1-26) ([1]; days 1-26): 77 g/day | Commercial feed conversion FCR total (days 1-26) ([1]; days 1-26, includes feed of birds that died): 2.19 | Actual feed conversion FCR total (days 1-26) ([1]; days 1-26, living birds only): 2.09 | Growth rate (g/d) Phase II (days 15-26) ([1]; days 15-26): 87 g/day | Commercial feed conversion FCR II (days 15-26) ([1]; days 15-26, includes feed of birds that died): 2.17 | Actual feed conversion FCR II (days 15-26) ([1]; days 15-26, living birds only): 2.13 | Ascites (%) (ascites [2]; 167 mg DMG per kg feed, 26-day test, 15° C): 6.25% | AHI, all animals (ascites heart index) (ascites [2]; 167 mg DMG per kg feed, autopsy, all animals): 0.242 | AHI, surviving animals (ascites heart index) (ascites [2]; 167 mg DMG per kg feed, autopsy, surviving animals): 0.241 | Influence DMG (%) on AHI, all animals (ascites [2]; versus control, all animals): −17.5% | Influence DMG (%) on AHI, surviving animals (ascites [2]; versus control, surviving animals): −19.2%

CN(C)CC(=O)OC[C@@H](O)[C@@H](O)[C@H](O)[C@@H](O)C(=O)O [pangamic acid, 6-O-(dimethylaminoacetyl)-D-gluconic acid]
feed conversion rate [3]: about 2.5

coenzyme Q
mortality due to ascites (ascites [4]): reduced considerably
